# Measured values as given in US20210292306A1, “NOVEL INDOLE DERIVATIVE AND ANTI-CANCER CONPOSITION CONTAINING SAME” (KOREA RESEARCH INSTITUTE OF BIOSCIENCE AND BIOTECHNOLOGY, priority 2016, published 2021).
# Key:
# [1] = Solubility in phosphate buffer; assay type: physicochemical; details: aqueous buffer, thermodynamic from solid
# Procedure: In order to examine the solubility of the indole derivative of the present invention, the solubility of the compound of Example 1 (WCI-1031) was examined at pH 6.5 or pH 7.4.
# Specifically, a solid sample (˜1 mg) of the test substance was placed on Whatman Syringeless filter (PVDF membrane, 0.45 μm pore size) and mixed with 0.5 ml of a phosphate buffer (pH 6.5 or 7.4). The mixture was sonicated for 15 minutes and vortexed for 1 hour at room temperature. The equilibrated mixture was filtered and the filtrate was analyzed with a multi-wavelength UV plate reader (FIGS. 8 and 9).
# [2] = tested on: HeLa; assay: Anti-proliferative activity in other cancer cell lines (MTT assay); assay type: cell-based; details: Homo sapiens, 96 h, HeLa (uterine cervix), 4 days, mean of three assays
# Procedure: (§1) HeLa cells (ATCC, USA), which are a human cervical cancer cell line, were dispensed into a 96-well plate at 2×10^3 cells/well, and the cells were treated with DMSO or the indole derivatives of the present invention, and then allowed to grow for 4 days. And then, MTT (3-(4,5-Dimethylthiazol-2-yl)-2,5-diphenyltetrazolium bromide) reagent was added to the wells at 10 μl/well. After 2 hours, the absorbance was measured at “OD 450” and statistical values were obtained using the plizm6 program. The data represent mean values of the results of two repeated assays (Table 1).
# (§2) Specifically, various cancer cell lines were cultured on a microtiter plate (1-3×10^3 cells/well), and the cells were treated with the indole derivative of the present invention and cultured for 4 days. Cytotoxicity was examined by the MTT assay by the same method as in Experimental Example 1-1, and the IC50 was obtained by the log-dose response curve. The data represent mean values of the results of three repeated assays (Table 2).
# [3] = tested on: A172; assay: as above; assay type: cell-based; details: Homo sapiens, A 172, 96 h, A172 (brain), 4 days, mean of three assays
# Procedure: as §1, §2
# [4] = tested on: A 549; assay: as above; assay type: cell-based; details: Homo sapiens, A549, 96 h, A 549 (lung), 4 days, mean of three assays
# Procedure: as §1, §2
# [5] = tested on: PC3; assay: as above; assay type: cell-based; details: Homo sapiens, PC-3, 96 h, PC3 (prostate), 4 days, mean of three assays
# Procedure: as §1, §2
# [6] = tested on: MCF7; assay: as above; assay type: cell-based; details: Homo sapiens, 96 h, MCF7 (breast), 4 days, mean of three assays
# Procedure: as §1, §2
# [7] = tested on: Hep3B; assay: as above; assay type: cell-based; details: Homo sapiens, 96 h, Hep3B (liver), 4 days, mean of three assays
# Procedure: as §1, §2
# [8] = tested on: HepG2; assay: as above; assay type: cell-based; details: Homo sapiens, 96 h, HepG2 (liver), 4 days, mean of three assays
# Procedure: as §1, §2
# [9] = tested on: K562; assay: as above; assay type: cell-based; details: Homo sapiens, 96 h, K562 (bone marrow), 4 days, mean of three assays
# Procedure: as §1, §2
# [10] = tested on: NCIH-1299; assay: as above; assay type: cell-based; details: Homo sapiens, NCI-H1299, 96 h, NCIH-1299 (lung), 4 days, mean of three assays
# Procedure: as §1, §2
# [11] = tested on: NCIH-125; assay: as above; assay type: cell-based; details: Homo sapiens, NCI-H125, 96 h, NCIH-125 (lung), 4 days, mean of three assays
# Procedure: as §1, §2
# [12] = tested on: SNU 484; assay: as above; assay type: cell-based; details: 96 h, SNU 484 (stomach), 4 days, mean of three assays
# Procedure: as §1, §2
# [13] = tested on: NCIH-460; assay: as above; assay type: cell-based; details: Homo sapiens, NCI-H460, 96 h, NCIH-460 (lung), 4 days, mean of three assays
# Procedure: as §1, §2
# [14] = tested on: A431; assay: as above; assay type: cell-based; details: Homo sapiens, A-431, 96 h, A431 (skin), 4 days, mean of three assays
# Procedure: as §1, §2
# [15] = tested on: Wehi 3; assay: as above; assay type: cell-based; details: 96 h, Wehi 3 (bone marrow), 4 days, mean of three assays
# Procedure: as §1, §2
# [16] = tested on: U373MG; assay: as above; assay type: cell-based; details: Homo sapiens, U373 MG, 96 h, U373MG (brain), 4 days, mean of three assays
# Procedure: as §1, §2
smiles,measurement,setting,value
"COC(=O)Cn1c(C)c(/C=N/NC(=O)c2cc3c(ccc4ccccc43)o2)c2ccccc21 [WCI-1031, methyl (E)-2-(2-methyl-3-((2-(naphtho[2,1-b]furan-2-carbonyl) hydrazono)methyl)-1H-indole-1-yl)acetate]",solubility at 1 h,"[1]; phosphate buffer pH 6.5, room temperature",0.9 µg/mL
same,solubility at 1 h,"[1]; phosphate buffer pH 7.4, room temperature",0.4 µg/mL
same,IC50,[2],297 nM
same,IC50,[3],1120 nM
same,IC50,[4],495 nM
same,IC50,[5],549 nM
same,IC50,[6],1320 nM
same,IC50,[7],503 nM
same,IC50,[8],2400 nM
same,IC50,[9],549 nM
same,IC50,[10],376 nM
same,IC50,[11],333 nM
same,IC50,[12],493 nM
same,IC50,[13],671 nM
same,IC50,[14],186 nM
same,IC50,[15],290 nM
same,IC50,[16],262 nM
